Measurements reported in patent US7417050B2 (priority 2002, dated 2008).
pKd: −log10 of the molar value.

Target: α7 nAChR subtype (Rattus norvegicus, UniProt Q05941)
Format: binding
Settings: read-out: KD of radioligand

α7 nAChR subtype, sequence (Q05941 23-502 limits assumed): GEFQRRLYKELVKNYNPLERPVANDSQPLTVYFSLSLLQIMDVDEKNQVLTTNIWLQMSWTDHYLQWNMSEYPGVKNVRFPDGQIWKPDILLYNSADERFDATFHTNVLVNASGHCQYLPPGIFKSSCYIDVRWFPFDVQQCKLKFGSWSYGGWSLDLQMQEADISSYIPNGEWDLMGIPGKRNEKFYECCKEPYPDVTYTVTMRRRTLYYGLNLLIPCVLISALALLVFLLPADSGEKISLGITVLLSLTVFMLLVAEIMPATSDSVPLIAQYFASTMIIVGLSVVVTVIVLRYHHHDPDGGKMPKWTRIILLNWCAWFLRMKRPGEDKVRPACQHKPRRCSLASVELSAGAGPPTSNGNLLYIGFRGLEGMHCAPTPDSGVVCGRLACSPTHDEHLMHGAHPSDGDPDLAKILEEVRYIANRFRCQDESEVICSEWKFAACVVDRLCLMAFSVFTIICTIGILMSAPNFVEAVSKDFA

## [^125I]-α-Bungarotoxin [[^125I]-α-BTX]
  pKd: 8.78
